# Laboratory results taken from ChEMBL document CHEMBL1781929, “Novel benzo[b]thiophene derivatives as new potential antidepressants with rapid onset of action” (J Med Chem, 2011).
# Calls of active or inactive are those of the source. The rule behind the calls is not given here.
# Columns and labels:
# [1] = biological target: Sodium-dependent serotonin transporter (Rattus norvegicus, UniProt P31652); experiment: Displacement of [3H]5-HT from of SERT in rat midbrain homogenates after 5 mins by scintillation counting; assay type: tissue-based
# Sequence of Sodium-dependent serotonin transporter (P31652 whole entry): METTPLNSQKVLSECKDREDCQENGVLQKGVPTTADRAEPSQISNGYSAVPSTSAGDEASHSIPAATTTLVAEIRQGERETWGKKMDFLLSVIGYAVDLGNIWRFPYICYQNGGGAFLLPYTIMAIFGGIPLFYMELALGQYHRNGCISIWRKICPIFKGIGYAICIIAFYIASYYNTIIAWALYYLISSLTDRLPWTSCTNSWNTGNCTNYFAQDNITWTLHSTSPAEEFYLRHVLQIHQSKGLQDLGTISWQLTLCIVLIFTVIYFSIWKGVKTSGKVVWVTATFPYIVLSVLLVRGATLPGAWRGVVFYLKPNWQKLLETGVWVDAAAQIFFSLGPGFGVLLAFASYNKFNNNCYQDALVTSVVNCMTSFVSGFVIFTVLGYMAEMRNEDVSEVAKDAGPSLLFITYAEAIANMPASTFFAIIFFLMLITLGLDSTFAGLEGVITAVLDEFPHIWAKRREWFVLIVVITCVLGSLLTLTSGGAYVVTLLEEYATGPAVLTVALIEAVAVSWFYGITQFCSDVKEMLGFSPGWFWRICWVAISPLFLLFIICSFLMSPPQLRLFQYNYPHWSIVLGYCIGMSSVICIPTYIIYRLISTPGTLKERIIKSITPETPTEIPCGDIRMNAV
# Mus musculus [2] = experiment: Antidepressant activity in albino mouse assessed as reduction of immobility time at 10 mg/kg, ip qd for 15 days by forced swimming test; assay type: functional, organism-based; design: dose 10 mg/kg
# [3] = biological target: T1, 5-hydroxytryptamine receptor 7 (Homo sapiens, UniProt P34969); experiment: Antagonist activity at human 5HT7 receptor expressed in HEK293 cells assessed as inhibition of serotonin-induced cAMP production after 20 mins; assay type: functional, cell-based
# T1 sequence (P34969 whole entry): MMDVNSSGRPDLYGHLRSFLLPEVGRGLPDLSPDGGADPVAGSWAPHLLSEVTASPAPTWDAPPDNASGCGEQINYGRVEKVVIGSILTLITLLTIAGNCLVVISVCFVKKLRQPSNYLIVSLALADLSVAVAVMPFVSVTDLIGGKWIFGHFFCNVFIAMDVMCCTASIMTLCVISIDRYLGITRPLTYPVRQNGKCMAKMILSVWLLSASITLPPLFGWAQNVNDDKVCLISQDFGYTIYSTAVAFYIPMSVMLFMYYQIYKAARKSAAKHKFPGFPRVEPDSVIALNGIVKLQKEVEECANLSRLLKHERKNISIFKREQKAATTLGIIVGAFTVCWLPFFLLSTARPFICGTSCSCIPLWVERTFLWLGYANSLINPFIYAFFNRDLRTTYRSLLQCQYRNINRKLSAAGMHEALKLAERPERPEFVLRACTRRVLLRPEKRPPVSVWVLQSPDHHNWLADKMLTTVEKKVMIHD
# [4] = biological target: T1, 5-hydroxytryptamine receptor 7; experiment: Displacement of [3H]5-CT from human 5HT7 receptor expressed in HEK293 cells after 1 hr by liquid scintillation counting; assay type: cell-based
# [5] = biological target: T2, 5-hydroxytryptamine receptor 1A (Homo sapiens, UniProt P08908); experiment: Binding affinity to 5HT1A receptor
# T2 sequence (P08908 whole entry): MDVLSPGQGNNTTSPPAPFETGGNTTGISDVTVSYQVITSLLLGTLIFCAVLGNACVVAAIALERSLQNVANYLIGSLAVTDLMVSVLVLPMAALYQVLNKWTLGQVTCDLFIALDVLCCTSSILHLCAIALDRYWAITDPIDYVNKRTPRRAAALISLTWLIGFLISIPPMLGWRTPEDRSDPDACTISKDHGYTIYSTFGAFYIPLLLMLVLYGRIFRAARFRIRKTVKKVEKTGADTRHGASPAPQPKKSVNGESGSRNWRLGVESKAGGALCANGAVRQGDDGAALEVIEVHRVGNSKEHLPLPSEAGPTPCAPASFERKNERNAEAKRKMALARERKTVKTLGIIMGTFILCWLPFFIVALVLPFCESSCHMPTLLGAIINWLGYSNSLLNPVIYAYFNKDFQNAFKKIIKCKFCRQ
# [6] = biological target: T1, 5-hydroxytryptamine receptor 7; experiment: Inverse agonist activity at human 5HT7 receptor expressed in HEK293 cells assessed as effect on cAMP production after 20 mins; assay type: functional, cell-based
# [7] = biological target: Sodium-dependent serotonin transporter (Rattus norvegicus) (UniProt P31652); experiment: Displacement of [3H]5-HT from of SERT in rat midbrain homogenates at 10 uM after 5 mins by scintillation counting; assay type: tissue-based
# Sequence of Sodium-dependent serotonin transporter (Rattus norvegicus) (P31652 whole entry): as the sequence (P31652 whole entry) above
# [8] = biological target: Sodium-dependent serotonin transporter (Rattus norvegicus) (UniProt P31652); experiment: Displacement of [3H]5-HT from of SERT in rat midbrain homogenates at 1 uM after 5 mins by scintillation counting; assay type: tissue-based
# Mus musculus [9] = experiment: Toxicity in albino mouse assessed as increase in locomotor activity at 10 mg/kg, ip; assay type: organism-based; design: dose 10 mg/kg, route intraperitoneal; details: in vivo
# Mus musculus [10] = experiment: Antidepressant activity in albino mouse assessed as reduction of immobility time at 10 mg/kg, ip measured for 4 mins by forced swimming test; assay type: functional, organism-based; design: dose 10 mg/kg
# [11] = biological target: T1, 5-hydroxytryptamine receptor 7; experiment: Partial agonist activity at human 5HT7 receptor expressed in HEK293 cells assessed as effect on cAMP production after 20 mins; assay type: functional, cell-based
# [12] = biological target: T1, 5-hydroxytryptamine receptor 7; experiment: Partial antagonist activity at human 5HT7 receptor expressed in HEK293 cells assessed as inhibition of serotonin-induced cAMP production after 20 mins; assay type: functional, cell-based
# Mus musculus [13] = experiment: Antidepressant activity in albino mouse assessed as reduction of immobility time at 20 mg/kg, ip qd for 15 days by forced swimming test; assay type: functional, organism-based; design: dose 20 mg/kg
# Mus musculus [14] = experiment: Antidepressant activity in albino mouse assessed as reduction of immobility time at 10 to 20 mg/kg, ip measured up to 4 mins by forced swimming test; assay type: functional, organism-based
Structure (SMILES),Ki [4],inhibition [7],inhibition [8],other results
N#Cc1ccc(N2CCCN(CCC(O)c3csc4ccccc34)CC2)cc1 (stereo unspecified),0.263 µM,36.7%,19.7%,IC50 [1]: 57.8 µM; Activity (Mus musculus [2]): Active; Activity [3]: Active; Ki [5]: 3.16 µM; Activity [6]: Active; Activity (Mus musculus [9]): Non-toxic; Activity (Mus musculus [10]): Active
O=C(CCN1CCC(N2CCOCC2)CC1)c1csc2ccccc12,53.7 µM,30.2%,11.1%,–
O=C(CCN1CCN(c2ccc([N+](=O)[O-])cc2)CC1)c1csc2ccc(F)cc12,91.2 µM,16.3%,0%,–
N#Cc1ccc(N2CCN(CCC(=O)c3csc4ccccc34)CC2)cc1,> 100 µM,38.2%,5.4%,–
OC(CCN1CCC(N2CCOCC2)CC1)c1csc2ccccc12 (stereo unspecified),27.5 µM,63.6%,2.2%,–
O=C(CCN[C@H]1CCN(c2ccc([N+](=O)[O-])cc2)C1)c1csc2ccccc12,> 100 µM,36.6%,0%,–
O=C(CCN[C@@H]1CCN(c2ccc([N+](=O)[O-])cc2)C1)c1csc2ccccc12,> 100 µM,45.4%,9%,–
O=[N+]([O-])c1ccc(N2CCCN(CCC(O)c3csc4ccccc34)CC2)c(C(F)(F)F)c1 (stereo unspecified),8.71 µM,36%,0%,Activity [11]: Active
"O=[N+]([O-])c1ccc(N2CCC(NCCC(O)c3csc4ccccc34)C2)cc1 (single isomer, unassigned)",> 100 µM,49.2%,28.1%,–
O=C(CCN1CCN(c2ccc([N+](=O)[O-])cc2)CC1)c1csc2ccccc12,> 100 µM,33.2%,2.1%,–
N#Cc1ccc(N2CCC(NCCC(=O)c3csc4ccccc34)CC2)cc1,7.24 µM,–,–,Activity [11]: Active
N#Cc1ccc(N2CCCN(CCC(=O)c3csc4ccccc34)CC2)cc1,15.1 µM,63.1%,1.2%,–
N#Cc1ccc(N2CC[C@H](NCCC(=O)c3csc4ccccc34)C2)cc1,> 100 µM,45.6%,0%,–
O=C(CCN1CC[C@@H](Nc2ccc([N+](=O)[O-])cc2)C1)c1csc2ccccc12,> 100 µM,76.5%,17.9%,–
O=C(CCNC1CCN(c2ccc([N+](=O)[O-])cc2)CC1)c1csc2ccc(F)cc12,4.79 µM,35%,3.1%,Activity [3]: Active; Activity [12]: Active
N#Cc1ccc(N2CCN(CCC(O)c3csc4ccccc34)CC2)cc1 (stereo unspecified),12.6 µM,57.7%,43.5%,Activity [3]: Active; Activity [6]: Active
O=C(CCN1CCCN(c2cnc3ccccc3n2)CC1)c1csc2ccccc12,9.55 µM,58%,23.8%,–
CNCCC(Oc1ccc(C(F)(F)F)cc1)c1ccccc1 (stereo unspecified),–,–,–,Activity (Mus musculus [13]): Active; Activity (Mus musculus [14]): inactive
O=C(CCNC1CCN(c2ccc([N+](=O)[O-])cc2C(F)(F)F)CC1)c1csc2ccccc12,9.12 µM,62.8%,26.9%,Activity [3]: Active; Activity [11]: Active
Nc1ccc(N2CCN(CCC(=O)c3csc4ccccc34)CC2)cc1,14.1 µM,–,–,–
N#Cc1ccc(N2CCC(NCCC(O)c3csc4ccccc34)CC2)cc1 (stereo unspecified),1.66 µM,80.4%,53.1%,IC50 [1]: 3.66 µM; Activity (Mus musculus [2]): Active; Ki [5]: 0.158 µM; Activity [6]: Active; Activity (Mus musculus [9]): Non-toxic
O=C(CCN1CCCN(c2ccc([N+](=O)[O-])cc2C(F)(F)F)CC1)c1csc2ccccc12,> 100 µM,–,–,–
O=C(CCN[C@H]1CCN(c2ccc([N+](=O)[O-])cc2C(F)(F)F)C1)c1csc2ccccc12,> 100 µM,97.9%,28.4%,IC50 [1]: 7.02 µM; Activity (Mus musculus [2]): Active; Ki [5]: 0.0501 µM; Activity (Mus musculus [9]): Non-toxic
